Assay [1] concerns RF strain of HIV (CEM-SS cells). The assay can be described thus: Cell Culture Anti-HIV Activity (cell viability, formazan). In kind it is cell-based. The settings on record: Human immunodeficiency virus 1, CEM-SS, 144 h, CEM-SS cells, RF strain of HIV, multiplicity of infection 0.04, 6 days at 37° C., 450 nm; read-out: HIV (CEM Cells) IC50. As for the experimental part:
The antiviral activity of aminediol inhibitors of the present invention was evaluated by a microculture method which determines the increase in cell viability of an infected culture when a drug is added. The assay depends on the metabolic reduction of tetrazolium reagent by viable cells to yield a soluble colored formazan product.
The assay was performed as follows: suspensions of CEM-SS cells (5000/well) were infected with the RF strain of HIV at a multiplicity of infection at 0.04 in a 96-well plate. The compounds of the present invention listed in the following Table 1, serially diluted in half-log fashion, were added to the infected and uninfected control cells. Untreated (infected and uninfected) cells were included as controls. Following incubation for 6 days at 37° C., viable cells in each well were quantitated by the visible light absorbance at 450 nm.
The IC50 was calculated as the concentration of drug that increased the formazan production in virally infected cells to 50% of that produced by uninfected cells in the absence of drug.

The next assay addresses T1, HIV protease (Human immunodeficiency virus type 1 group M subtype B, UniProt P04585).
T1 construct: and purified protease
The assay can be described thus: HIV Protease Assay. The assay is classed as biochemical. The note with it: pH 5.5, 10 μM inhibitor, 4% DMSO, 450 μM substrate, pH 5.5, 30 minutes at 37° C., RP-HPLC; read-out: HIV Protease % Inhibition at 10 μM. In a few lines:
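At a single final concentration of 10 μM (4% DMSO), inhibitors were added to a 30-minute, 37° C reaction of purified enzyme with 450 μM H2N-Val-Ser-Gln-Asn-(β-naphthyl-alanine)-Pro-Val-Ile-OH at pH 5.5 (sodium acetate, BSA). Hydrolysis was quantified by reverse-phase HPLC with 220 nm detection after acid quench.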

In general, IC50 refers to the concentration at which inhibition is half-maximal. In general, inhibition refers to the share of the control response that was lost under treatment. On to `CC(C)[C@H](NC(=O)CO)C(=O)N[C@@H](Cc1ccccc1)[C@H](O)CNC[C@@H](O)[C@H](Cc1ccccc1)NC(=O)OC(C)(C)C` (relative stereo) [Compound 259, [1R*, 2S* (2S*, 3R*)]-N-[3-[[3-[[(1,1-Dimethylethoxy)carbonyl]amino]-2-hydroxy-4-phenylbutyl]amino]-2-hydroxy-1-(phenylmetyl)propyl]-N^2-(hydroxyacetyl)-L-valinamide], for which, in assay [1], the IC50 stood at 5000 nM. Besides, the inhibition at 10 µM on HIV protease was found to be 99%.
For `CC(C)[C@H](NC(=O)CCc1c[nH]c2ccccc12)C(=O)N[C@@H](Cc1ccccc1)[C@H](O)CNC[C@@H](O)[C@H](Cc1ccccc1)NC(=O)OC(C)(C)C` (relative stereo) [Compound 260, [1R*,2S*(2S*,3R*)]-N-[3-[[3-[[(1,1-Dimethylethoxy)carbonyl]amino]-2-hydroxy-4-phenylbutyl]amino]-2-hydroxy-1-(phenylmethyl)propyl]-N^2-[3-(1H-indol-3-yl)-1-oxo-propyl]-L-valinamide], in that order: 290 nM and 100%.
For `CNC(=O)N[C@H](C(=O)N[C@@H](Cc1ccccc1)[C@H](O)CNC[C@@H](O)[C@H](Cc1ccccc1)NC(=O)OC(C)(C)C)C(C)(C)C` (relative stereo) [Compound 263, [1R*,2S*(2S*,3R*)]-N-[3-[[3-[[(1,1-Dimethylethoxy)carbonyl]amino]-2-hydroxy-4-phenylbutyl]amino]-2-hydroxy-1-(phenylmethyl)propyl]-N^2-[(methylamino)carbonyl]-3-methyl-L-valinamide] the same measures were 340 nM and 98%.
For `CC(C)(C)OC(=O)N[C@@H](Cc1ccccc1)[C@H](O)CNC[C@@H](O)[C@H](Cc1ccccc1)NC(=O)[C@H](CCO)NC(=O)OCc1ccccc1` (relative stereo) [Compound 264, [1R*2S*(2S*,3R*)]-N-[3-[[3-[[(1,1-Dimethylethoxy)carbonyl]amino]-2-hydroxy-4-phenylbutyl]amino]-2-hydroxy-l-(phenylmethyl)propyl]-N^2-[(phenylmethoxy)carbonyl]-L-homoserinamide], in that order: 160 nM and 99%.
Regarding `CC(C)[C@H](NC(=O)OCc1nc(-c2ccccc2)c[nH]1)C(=O)N[C@@H](Cc1ccccc1)[C@H](O)CNC[C@@H](O)[C@H](Cc1ccccc1)NC(=O)OC(C)(C)C` (relative stereo) [Compound 265, [1R*,2S*(2S*,3R*)]-N-[3-[[3-[[(1,1-Dimethylethoxy)carbonyl]amino]-2-hydroxy-4-phenylbutyl]amino]-2-hydroxy-1-(phenylmethyl)propyl]-N^2-[[(4-phenyl-1H-imidazol-2-yl)methoxylcarbonyl]-L-valinamide], the IC50 in assay [1] was determined as 2600 nM. Besides, the inhibition at 10 µM at HIV protease stood at 100%.
On to `CC(C)[C@H](NC(=O)NCc1nc2ccccc2[nH]1)C(=O)N[C@@H](Cc1ccccc1)[C@H](O)CNC[C@@H](O)[C@H](Cc1ccccc1)NC(=O)OC(C)(C)C` (relative stereo) [Compound 273, [1R*,2S*(2S*,3R*)]-N^2-[[(1H-Benzimidazol-2-ylmethyl)amino]carbonyl]-N-[3-[[3-[[(1,1-dimethylethoxy)carbonyl]amino]-2-hydroxy-4-phenylbutyl]amino]-2-hydroxy-1-(phenylmethyl)propyl]-L-valinamide], for which, in assay [1], the IC50 stood at 1700 nM. Also, at HIV protease, the inhibition at 10 µM was 100%.
For `CC(C)[C@H](NC(=O)OCC1=Cc2ccccc2C1)C(=O)N[C@@H](Cc1ccccc1)[C@H](O)CNC[C@@H](O)[C@H](Cc1ccccc1)NC(=O)OC(C)(C)C` (relative stereo) [Compound 280, [1R*, 2S* (2S*, 3R*)]-N-[3-[[3-[[(1,1-Dimethylethoxy)carbonyl]amino]-2-hydroxy-4-phenylbutyl]amino]-2-hydroxy-1-(phenylmethyl)propyl]-N^2-[[(1H-inden-2-yl)methoxy]carbonyl]-L-valinamide], in that order: 50 nM and 100%.
For `CC(C)[C@H](NC(=O)OCc1ccc2ccccc2n1)C(=O)N[C@@H](Cc1ccccc1)[C@H](O)CNC[C@@H](O)[C@H](Cc1ccccc1)NC(=O)OC(C)(C)C` (relative stereo) [Compound 281, [1R*,2S*(2S*,3R*)]]-N-[3-[[1,1-Dimethylethoxy)carbonyl]amino]-2-hydroxy-4-phenylbutyl]amino]-2-hydroxy-1-(phenylmethyl)-proyl]-N^2-[(2-quinolinylmethoxy)carbonyl]-L-valinamide] the same measures were 290 nM and 100%.
Regarding `C[C@H](NC=O)C(=O)N[C@H](C(=O)N[C@@H](Cc1ccccc1)[C@H](O)CNC[C@@H](O)[C@H](Cc1ccccc1)NC(=O)OC(C)(C)C)C(C)(C)C` (relative stereo) [Compound 284, [1R*,2S*(2S*,3R*)]-N-[3-[[(1,1-Dimethylethoxy)carbonyl]amino]-2-hydroxy-4-phenylbutyl]amino]-2-hydroxy-1-(phenylmethyl)propyl]-N^2-(N-formyl-L-alanyl)-3-methyl-L-valinamide], the IC50 in assay [1] worked out at 4400 nM. On HIV protease, the inhibition at 10 µM worked out at 100%.
For `CC(C)(C)OC(=O)N[C@@H](Cc1ccccc1)[C@H](O)CNC[C@@H](O)[C@H](Cc1ccccc1)NC(=O)[C@@H](NC(=O)[C@H](Cc1ccccc1)NC=O)C(C)(C)C` (relative stereo) [Compound 285, [1R*,2S*(2S*,3R*)]-N-[3-[[(1,1-Dimethylethoxy)carbonyl]amino]-2-hydroxy-4-phenylbutyl]amino]-2-hydroxy-1-(phenylmethyl)propyl]-N^2-(N-formyl-L-phenylalanyl)-3-methyl-L-valinamide], the IC50 in assay [1] came to 650 nM. Also, the inhibition at 10 µM at HIV protease was 100%.
For `CC(C)(C)OC(=O)N[C@@H](Cc1ccccc1)[C@H](O)CNC[C@@H](O)[C@H](Cc1ccccc1)NC(=O)[C@@H](NC(=O)CNC=O)C(C)(C)C` (relative stereo) [Compound 286, [1R*,2S*(2S*,3R*)]-N-[3-[[(1,1-Dimethylethoxy)carbonyl]amino]-2-hydroxy-4-phenylbutyl]amino]-2-hydroxy-1-(phenylmethyl)propyl]-N^2-(N-formylglycyl)-3-methyl-L-valinamide], in that order: 5000 nM and 99%.
For `CC(C)[C@H](NC(=O)OCc1nc2ccccc2o1)C(=O)N[C@@H](Cc1ccc(O)cc1)[C@H](O)CNC[C@@H](O)[C@H](Cc1ccccc1)NC(=O)OC(C)(C)C` (relative stereo) [Compound 288, [1R*,2S*(2S*,3R*)]-N^2-[[(2-Benzoxazolyl)methoxy]carbonyl]-N-[3-[[3-[[(1.1-dimethylethoxy)carbonyl]amino]-2-hydroxy-4-phenylbutyl]amino]-2-hydroxy-1-[(4-hydroxyphenyl)methyl]propyl]-L-valinamide] the same measures were 470 nM and 100%.
For `COC(=O)N[C@H](C(=O)N[C@@H](Cc1ccc(OCCc2ccccn2)cc1)[C@H](O)CNC[C@@H](O)[C@H](Cc1ccccc1)NC(=O)OC(C)(C)C)C(C)(C)C` (relative stereo) [Compound 297, [1R*,2S*(2S*,3R*)]-N-[3-[[3-[[(1,1-Dimethylethoxy)carbonyl]amino]-2-hydroxy-4-phenylbutyl]amino]-2-hydroxy-1-[[4-[r2-(2-pyridinyl)ethoxy]phenyl]methyl]propyl]-N^2-(2-methoxycarbonyl)-3-methyl-L-valinamide], in that order: 50 nM and 100%.
Turning to `CN(C)C(=O)N[C@H](C(=O)N[C@@H](Cc1ccccc1)[C@H](O)CNC[C@@H](O)[C@H](Cc1ccccc1)NC(=O)OC(C)(C)C)C(C)(C)C` (relative stereo) [Compound 305, [1R*,2S* (2S*,3R*)]-N-[3-[[3-[[(1,1Dimethylethoxy)carbonyl]amino]-2-hydroxy-4-phenylbutyl]amino]-2-hydroxy-1-(phenylmethyl)propyl]-N^2-[(dimethylamino)carbonyl)-3-methyl-L-valinamide], in assay [1], the IC50 was determined as 200 nM. Further, the inhibition at 10 µM on HIV protease stood at 100%.
For `COC(=O)N[C@H](C(=O)N[C@@H](Cc1ccccc1)[C@H](O)CNC[C@@H](O)[C@H](Cc1ccccc1)NC(=O)[C@@H](NC(=O)OC)C(C)(C)C)C(C)(C)C` (relative stereo) [Compound 324, 1S-(1S*,2R*)-N, N'-Iminobis[2-hydroxy-1-(phenylmethyl)-3,1-propanediyl]bis(imino)bis[1-(1,1-dimethylethyl)-2-oxo-2,1-ethanediyl]]biscarbamic acid, dimethyl ester] the same measures were 220 nM and 100%.

The record behind these values is patent publication US5760036A, “Aminediol protease inhibitors” (E. R. Squibb & Sons, Inc., priority 1995, dated 1998).
